# In US7087642B2 (priority 1999, dated 2006):
# Where two headings read alike, the source gives them in different places.
# What was measured:
# [1] = system: human PBMC T cells; assay: cells; format: cell-based; settings: read-out: T-cells (IC50)
# [2] = system: human PBMC B cells; assay: cells; format: cell-based; settings: read-out: B-cells (IC50)
# [3] = target: IMPDH human type II (Homo sapiens, UniProt P12268); assay: biochemical
smiles,measurement,setting,value
COc1cc(NC(=O)Nc2cccc(CNC(=O)O[C@@H](CO)CCC#N)c2)ccc1-c1cnco1 [Compound 57],IC50,"[1]; Homo sapiens, 72 h",100 to 1000 nM
same,IC50,"[2]; Homo sapiens, 72 h",100 to 1000 nM
same,Ki,[3]; read-out: Ki,< 10 nM
COc1cc(NC(=O)Nc2cccc(CNC(=O)O[C@@H](CN3CCOCC3)c3ccccc3)c2)ccc1-c1cnco1 [Compound 52],IC50,"[1]; Homo sapiens, 72 h",> 1000 nM
same,IC50,"[2]; Homo sapiens, 72 h",> 1000 nM
same,Ki,[3]; read-out: Ki,< 10 nM
CCC(CC#N)OC(=O)N[C@H](C)c1cccc(NC(=O)Nc2ccc(C#N)c(OC)c2)c1 (stereo partly drawn) [Compound 174],IC50,[1],> 1000 nM
same,IC50,[2],100 to 1000 nM
same,Ki,[3],> 50 nM
COc1cc(NC(=O)Nc2cccc(CNC(=O)OC(C)CC#N)c2)ccc1-c1cnco1 (stereo not drawn) [Compound 26],IC50,"[1]; Homo sapiens, 72 h",< 100 nM
same,IC50,"[2]; Homo sapiens, 72 h",< 100 nM
same,Ki,[3]; read-out: Ki,< 10 nM
COc1cc(NC(=O)Nc2cccc(CNC(=O)OC(CCN(CC(C)C)CC3CC3)c3ccccc3)c2)ccc1-c1cnco1 (stereo not drawn) [Compound 127],IC50,"[1]; Homo sapiens, 72 h",> 1000 nM
same,IC50,"[2]; Homo sapiens, 72 h",> 1000 nM
same,Ki,[3]; read-out: Ki,> 50 nM
COc1cc(NC(=O)Nc2cccc(CNC(=O)OC(CCN3CCCCC3)c3ccccc3)c2)ccc1-c1cnco1 (stereo not drawn) [Compound 50],IC50,"[1]; Homo sapiens, 72 h",> 1000 nM
same,IC50,"[2]; Homo sapiens, 72 h",> 1000 nM
same,Ki,[3]; read-out: Ki,< 10 nM
CC[C@@H](CCO)OC(=O)NCc1cccc(NC(=O)Nc2ccc(-c3cnco3)c(OC)c2)c1 [Compound 69],IC50,[1],100 to 1000 nM
same,IC50,[2],100 to 1000 nM
same,Ki,[3]; read-out: Ki,< 10 nM
COc1cc(NC(=O)Nc2cccc(CNC(=O)OCCC#N)c2)ccc1-c1cnco1 [Compound 1],IC50,"[1]; Homo sapiens, 72 h",100 to 1000 nM
same,IC50,"[2]; Homo sapiens, 72 h",< 100 nM
same,Ki,[3]; read-out: Ki,< 10 nM
COc1cc(NC(=O)Nc2cccc(CNC(=O)O[C@@H](CO)CC#N)c2)ccc1-c1cnco1 [Compound 62],IC50,"[1]; Homo sapiens, 72 h",100 to 1000 nM
same,IC50,"[2]; Homo sapiens, 72 h",100 to 1000 nM
same,Ki,[3]; read-out: Ki,< 10 nM
COc1cc(NC(=O)Nc2cccc(CNC(=O)OCC(OCc3ccco3)N(CCC#N)CC(C)C)c2)ccc1-c1cnco1 (stereo not drawn) [Compound 4],IC50,"[1]; Homo sapiens, 72 h",> 1000 nM
same,IC50,"[2]; Homo sapiens, 72 h",> 1000 nM
same,Ki,[3]; read-out: Ki,< 10 nM
CC[C@H](CCN(CC)CC)OC(=O)NCc1cccc(NC(=O)Nc2ccc(-c3cnco3)c(OC)c2)c1 [Compound 92],IC50,"[1]; Homo sapiens, 72 h",100 to 1000 nM
same,IC50,"[2]; Homo sapiens, 72 h",100 to 1000 nM
same,Ki,[3]; read-out: Ki,< 10 nM
COc1cc(NC(=O)Nc2cccc(CNC(=O)OC(CC#N)C(F)(F)F)c2)ccc1-c1cnco1 (stereo not drawn) [Compound 79],IC50,"[1]; Homo sapiens, 72 h",100 to 1000 nM
same,IC50,"[2]; Homo sapiens, 72 h",100 to 1000 nM
same,Ki,[3]; read-out: Ki,< 10 nM
COc1cc(NC(=O)Nc2cccc(CNC(=O)OCCN(CCC#N)CCC#N)c2)ccc1-c1cnco1 [Compound 14],IC50,"[1]; Homo sapiens, 72 h",> 1000 nM
same,IC50,"[2]; Homo sapiens, 72 h",100 to 1000 nM
same,Ki,[3]; read-out: Ki,< 10 nM
COc1cc(NC(=O)Nc2cccc(CNC(=O)OC3COCC3OCC#N)c2)ccc1-c1cnco1 (stereo not drawn) [Compound 75],IC50,"[1]; Homo sapiens, 72 h",100 to 1000 nM
same,IC50,"[2]; Homo sapiens, 72 h",100 to 1000 nM
same,Ki,[3]; read-out: Ki,< 10 nM
CCC(OC(=O)NCc1cccc(NC(=O)Nc2ccc(-c3cnco3)c(OC)c2)c1)C1(C#N)CC1 (stereo not drawn) [Compound 103],IC50,"[1]; Homo sapiens, 72 h",100 to 1000 nM
same,IC50,"[2]; Homo sapiens, 72 h",< 100 nM
same,Ki,[3]; read-out: Ki,> 50 nM
CCN(CC(OC(=O)NCc1cccc(NC(=O)Nc2ccc(-c3cnco3)c(OC)c2)c1)C1CCCCC1)C(C)C (stereo not drawn) [Compound 158],IC50,"[1]; Homo sapiens, 72 h",> 1000 nM
same,IC50,"[2]; Homo sapiens, 72 h",100 to 1000 nM
same,Ki,[3]; read-out: Ki,10 to 50 nM
CCC(CN(CC)CC)OC(=O)NCc1cccc(NC(=O)Nc2ccc(-c3cnco3)c(OC)c2)c1 (stereo not drawn) [Compound 87],IC50,"[1]; Homo sapiens, 72 h",< 100 nM
same,IC50,"[2]; Homo sapiens, 72 h",< 100 nM
same,Ki,[3]; read-out: Ki,< 10 nM
COc1cc(NC(=O)Nc2cccc(CNC(=O)OC(COC(C)C)CN(CCC#N)CC(C)C)c2)ccc1-c1cnco1 (stereo not drawn) [Compound 11],IC50,"[1]; Homo sapiens, 72 h",> 1000 nM
same,IC50,"[2]; Homo sapiens, 72 h",100 to 1000 nM
same,Ki,[3]; read-out: Ki,< 10 nM
CCC(OC(=O)NCc1cccc(NC(=O)Nc2ccc(-c3cnco3)c(OC)c2)c1)C(C)(C)C#N (stereo not drawn) [Compound 100],IC50,"[1]; Homo sapiens, 72 h",100 to 1000 nM
same,IC50,"[2]; Homo sapiens, 72 h",100 to 1000 nM
same,Ki,[3]; read-out: Ki,10 to 50 nM
COc1cc(NC(=O)Nc2cccc(CNC(=O)OCCCOC(C)=O)c2)ccc1-c1cnco1 [Compound 58],IC50,"[1]; Homo sapiens, 72 h",100 to 1000 nM
same,IC50,"[2]; Homo sapiens, 72 h",100 to 1000 nM
same,Ki,[3]; read-out: Ki,< 10 nM
COc1cc(NC(=O)Nc2cccc(CNC(=O)O[C@H](CO)CCC#N)c2)ccc1-c1cnco1 [Compound 59],IC50,"[1]; Homo sapiens, 72 h",> 1000 nM
same,IC50,"[2]; Homo sapiens, 72 h",100 to 1000 nM
same,Ki,[3]; read-out: Ki,< 10 nM
CCC(C[N+]1([O-])CCS(=O)(=O)CC1)OC(=O)NCc1cccc(NC(=O)Nc2ccc(-c3cnco3)c(OC)c2)c1 (stereo not drawn) [Compound 91],IC50,"[1]; Homo sapiens, 72 h",> 1000 nM
same,IC50,"[2]; Homo sapiens, 72 h",> 1000 nM
same,Ki,[3]; read-out: Ki,< 10 nM
CCN(CC)C[C@H](CC#N)OC(=O)NCc1cccc(NC(=O)Nc2ccc(-c3cnco3)c(OC)c2)c1 [Compound 19],IC50,[1],100 to 1000 nM
same,IC50,[2],100 to 1000 nM
same,Ki,[3]; read-out: Ki,< 10 nM
CCN(CC)CCC(OC(=O)NCc1cccc(NC(=O)Nc2ccc(-c3cnco3)c(OC)c2)c1)C(F)(F)F (stereo not drawn) [Compound 37],IC50,"[1]; Homo sapiens, 72 h",100 to 1000 nM
same,IC50,"[2]; Homo sapiens, 72 h",100 to 1000 nM
same,Ki,[3]; read-out: Ki,< 10 nM
CCCN(CC1CC1)CC(OC(=O)NCc1cccc(NC(=O)Nc2ccc(-c3cnco3)c(OC)c2)c1)c1ccccc1 (stereo not drawn) [Compound 114],IC50,"[1]; Homo sapiens, 72 h",> 1000 nM
same,IC50,"[2]; Homo sapiens, 72 h",> 1000 nM
same,Ki,[3]; read-out: Ki,> 50 nM
COc1cc(NC(=O)Nc2cccc(CNC(=O)O[C@@H]3CCN(S(=O)(=O)N(C)C)C3)c2)ccc1-c1cnco1 [Compound 77],IC50,"[1]; Homo sapiens, 72 h",100 to 1000 nM
same,IC50,"[2]; Homo sapiens, 72 h",100 to 1000 nM
same,Ki,[3]; read-out: Ki,< 10 nM
